Columns and labels:
Conditions in all cases: exposure time: 72 h
E13 [1] = patient-derived glioblastoma stem cells of classical subtype; assay: phenotypic distance (Euclidean, principal components) from DMSO controls (arbitrary units); higher = stronger morphological change
E28 [2] = patient-derived glioblastoma stem cells of classical subtype; assay: as above
FT3469 [3] = normal neural stem cell line; assay: as above
E57 [4] = patient-derived glioblastoma stem cells of mesenchymal subtype; assay: as above
E34 [5] = patient-derived glioblastoma stem cells of proneural subtype; assay: as above
E31 [6] = patient-derived glioblastoma stem cells of proneural subtype; assay: as above
E21 [7] = patient-derived glioblastoma stem cells of mesenchymal subtype; assay: as above
E13 [8] = assay: surviving fraction (nuclei count normalised to DMSO); higher = more cells surviving (less toxic)
E28 [9] = assay: as above
FT3469 [10] = assay: as above
E57 [11] = assay: as above
E34 [12] = assay: as above
E31 [13] = assay: as above
E21 [14] = assay: as above
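For phenotypic distance (Euclidean, principal components) from DMSO controls in this document: cell Painting imaging in 384-well plates, CellProfiler features reduced to at least 20 principal components, Euclidean distance versus same-plate DMSO vehicle wells (0.1% v/v), median over six images per well.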
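For surviving fraction (nuclei count normalised to DMSO) in this document: nuclei counted by high-content imaging of Hoechst-stained cells in laminin-coated 384-well plates, relative to 0.1% DMSO vehicle wells, with staurosporine as cell-death control.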

Nc1nc2n[nH]nc2c(=O)[nH]1 [Azaguanine-8]
Conditions	phenotypic distance	surviving fraction
E13 [1], 4.1 nM	0.737	–
E13 [1], 12.3 nM	0.508	–
E13 [1], 37 nM	1.23	–
E13 [1], 111.1 nM	0.95	–
E13 [1], 333.3 nM	2.46	–
E13 [1], 1000 nM	2.82	–
E13 [1], 3000 nM	5.02	–
E13 [8], 4.1 nM	–	0.918
E13 [8], 12.3 nM	–	1.02
E13 [8], 37 nM	–	1.08
E13 [8], 111.1 nM	–	0.87
E13 [8], 333.3 nM	–	0.559
E13 [8], 1000 nM	–	0.581
E13 [8], 3000 nM	–	0.307
E21 [7], 4.1 nM	0.646	–
E21 [7], 12.3 nM	1.28	–
E21 [7], 37 nM	1.04	–
E21 [7], 111.1 nM	1.87	–
E21 [7], 333.3 nM	3.3	–
E21 [7], 1000 nM	4.9	–
E21 [7], 3000 nM	7.15	–
E21 [14], 4.1 nM	–	0.917
E21 [14], 12.3 nM	–	1.06
E21 [14], 37 nM	–	0.788
E21 [14], 111.1 nM	–	0.68
E21 [14], 333.3 nM	–	0.489
E21 [14], 1000 nM	–	0.429
E21 [14], 3000 nM	–	0.296
E28 [2], 4.1 nM	0.671	–
E28 [2], 12.3 nM	0.89	–
E28 [2], 37 nM	1	–
E28 [2], 111.1 nM	0.848	–
E28 [2], 333.3 nM	1.21	–
E28 [2], 1000 nM	1.81	–
E28 [2], 3000 nM	3.73	–
E28 [9], 4.1 nM	–	1.08
E28 [9], 12.3 nM	–	1.11
E28 [9], 37 nM	–	1.14
E28 [9], 111.1 nM	–	0.882
E28 [9], 333.3 nM	–	0.664
E28 [9], 1000 nM	–	0.574
E28 [9], 3000 nM	–	0.292
E31 [6], 4.1 nM	1.03	–
E31 [6], 12.3 nM	0.622	–
E31 [6], 37 nM	0.999	–
E31 [6], 111.1 nM	1.08	–
E31 [6], 333.3 nM	1.4	–
E31 [6], 1000 nM	2.35	–
E31 [6], 3000 nM	5.2	–
E31 [13], 4.1 nM	–	0.825
E31 [13], 12.3 nM	–	0.941
E31 [13], 37 nM	–	1.07
E31 [13], 111.1 nM	–	0.654
E31 [13], 333.3 nM	–	0.48
E31 [13], 1000 nM	–	0.225
E31 [13], 3000 nM	–	0.0814
E34 [5], 4.1 nM	0.455	–
E34 [5], 12.3 nM	0.707	–
E34 [5], 37 nM	0.662	–
E34 [5], 111.1 nM	0.809	–
E34 [5], 333.3 nM	1.12	–
E34 [5], 1000 nM	2.2	–
E34 [5], 3000 nM	3.18	–
E34 [12], 4.1 nM	–	0.988
E34 [12], 12.3 nM	–	0.839
E34 [12], 37 nM	–	0.913
E34 [12], 111.1 nM	–	0.939
E34 [12], 333.3 nM	–	0.795
E34 [12], 1000 nM	–	0.601
E34 [12], 3000 nM	–	0.563
E57 [4], 4.1 nM	0.712	–
E57 [4], 12.3 nM	0.801	–
E57 [4], 37 nM	1.2	–
E57 [4], 111.1 nM	1.96	–
E57 [4], 333.3 nM	3.18	–
E57 [4], 1000 nM	5.55	–
E57 [4], 3000 nM	6.09	–
E57 [11], 4.1 nM	–	1
E57 [11], 12.3 nM	–	0.873
E57 [11], 37 nM	–	0.831
E57 [11], 111.1 nM	–	0.605
E57 [11], 333.3 nM	–	0.459
E57 [11], 1000 nM	–	0.271
E57 [11], 3000 nM	–	0.22
FT3469 [3], 4.1 nM	0.821	–
FT3469 [3], 12.3 nM	1.13	–
FT3469 [3], 37 nM	0.941	–
FT3469 [3], 111.1 nM	1.28	–
FT3469 [3], 333.3 nM	1.37	–
FT3469 [3], 1000 nM	1.95	–
FT3469 [3], 3000 nM	2.95	–
FT3469 [10], 4.1 nM	–	0.958
FT3469 [10], 12.3 nM	–	1.15
FT3469 [10], 37 nM	–	1.2
FT3469 [10], 111.1 nM	–	0.987
FT3469 [10], 333.3 nM	–	0.881
FT3469 [10], 1000 nM	–	0.685
FT3469 [10], 3000 nM	–	0.59
